Results as given in patent US11332468B2, “Azaindole derivatives as Rho-kinase inhibitors” (CHIESI FARMACEUTICI S.p.A., priority 2017, dated 2022).

How the values were obtained:
Rho kinase 1 (ROCK1) = Rho kinase 1 (ROCK1) (Homo sapiens, UniProt Q13464); test: In vitro Rho kinase inhibitory activity assay (ADP-Glo), ROCK1; type: biochemical; settings: Ki by Cheng-Prusoff from IC50; 10 μM ATP; range of activity
Experimental: (§1) The effectiveness of compounds of the invention to inhibit Rho kinase activity can be determined in a […] assay containing 40 mM Tris pH7.5, 20 mM MgC2 0.1 mg/ml BSA, 50 μM DTT and 2.5 μM peptide substrate (Myelin Basic Protein) using an ADP-Glo kit (Promega). Compounds were dissolved in DMSO such that the final concentration of DMSO was 1% in the assay. All reactions/incubations are performed at 25° C. Compound (2 ul) and either Rho kinase 1 or 2 (4 μl) were mixed and incubated for 30 mins. Reactions were initiated by addition of ATP (4 μl) such that the final concentration of ATP in the assay was 10 μM. After a 1 hour incubation 10 μl of ADP-Glo Reagent was added and after a further 45 minute incubation 20 ul of Kinase Detection Buffer was added and the mixture incubated for a further 30 minutes. The luminescent signal was measured on a luminometer. […] Compounds were tested in dose-response format and the inhibition of kinase activity was calculated at each concentration of compound. To determine the IC50 (concentration of compound required to inhibit 50% of the enzyme activity) data were fit to a plot of % inhibition vs Log10 compound concentration using a sigmoidal fit with a variable slope and fixing the maximum to 100% and the minimum to 0%. To determine the Ki values the Cheng-Prusoff equation was utilized (Ki=IC50/(1+[S]/Km)

Rho kinase 2 (ROCK2) = Rho kinase 2 (ROCK2) (Homo sapiens, UniProt O75116); test: In vitro Rho kinase inhibitory activity assay (ADP-Glo), ROCK2; type: biochemical; settings: Ki by Cheng-Prusoff from IC50; 10 μM ATP; range of activity
Chain of Rho kinase 2 (ROCK2) (O75116 whole entry): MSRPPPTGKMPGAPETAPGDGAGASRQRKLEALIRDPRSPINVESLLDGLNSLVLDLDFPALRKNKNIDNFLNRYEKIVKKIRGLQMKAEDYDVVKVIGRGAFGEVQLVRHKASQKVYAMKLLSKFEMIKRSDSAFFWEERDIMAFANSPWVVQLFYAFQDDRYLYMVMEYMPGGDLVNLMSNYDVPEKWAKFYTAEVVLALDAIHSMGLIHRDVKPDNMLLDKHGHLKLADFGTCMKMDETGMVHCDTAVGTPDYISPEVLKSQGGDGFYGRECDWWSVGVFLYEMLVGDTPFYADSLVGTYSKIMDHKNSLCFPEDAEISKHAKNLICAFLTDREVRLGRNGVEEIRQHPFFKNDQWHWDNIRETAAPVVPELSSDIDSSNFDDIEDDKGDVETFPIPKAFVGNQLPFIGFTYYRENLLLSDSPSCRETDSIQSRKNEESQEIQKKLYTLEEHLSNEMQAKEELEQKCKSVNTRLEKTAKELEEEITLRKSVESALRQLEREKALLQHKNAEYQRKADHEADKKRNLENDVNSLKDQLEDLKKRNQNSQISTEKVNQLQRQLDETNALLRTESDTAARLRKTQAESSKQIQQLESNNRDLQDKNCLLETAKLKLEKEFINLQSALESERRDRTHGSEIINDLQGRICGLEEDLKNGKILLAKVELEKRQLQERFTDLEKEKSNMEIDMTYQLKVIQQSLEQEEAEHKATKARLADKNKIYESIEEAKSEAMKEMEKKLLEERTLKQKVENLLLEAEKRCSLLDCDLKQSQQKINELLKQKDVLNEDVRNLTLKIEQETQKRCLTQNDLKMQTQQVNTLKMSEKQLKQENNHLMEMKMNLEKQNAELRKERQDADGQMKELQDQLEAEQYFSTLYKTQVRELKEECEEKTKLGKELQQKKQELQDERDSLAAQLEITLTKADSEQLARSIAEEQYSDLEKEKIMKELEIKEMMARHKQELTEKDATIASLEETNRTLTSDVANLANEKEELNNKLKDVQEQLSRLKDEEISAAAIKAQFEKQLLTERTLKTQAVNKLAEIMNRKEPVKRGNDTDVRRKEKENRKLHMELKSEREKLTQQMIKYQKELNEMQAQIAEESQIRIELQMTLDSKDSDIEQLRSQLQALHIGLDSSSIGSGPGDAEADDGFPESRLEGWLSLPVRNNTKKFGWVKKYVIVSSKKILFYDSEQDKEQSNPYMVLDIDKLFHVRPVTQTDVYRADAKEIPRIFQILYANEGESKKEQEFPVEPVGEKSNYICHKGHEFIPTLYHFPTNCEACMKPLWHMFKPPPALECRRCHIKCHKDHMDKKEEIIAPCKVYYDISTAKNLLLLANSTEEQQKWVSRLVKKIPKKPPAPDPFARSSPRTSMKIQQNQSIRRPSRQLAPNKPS
Experimental: as §1

Chain of Rho kinase 1 (ROCK1) (Q13464 whole entry): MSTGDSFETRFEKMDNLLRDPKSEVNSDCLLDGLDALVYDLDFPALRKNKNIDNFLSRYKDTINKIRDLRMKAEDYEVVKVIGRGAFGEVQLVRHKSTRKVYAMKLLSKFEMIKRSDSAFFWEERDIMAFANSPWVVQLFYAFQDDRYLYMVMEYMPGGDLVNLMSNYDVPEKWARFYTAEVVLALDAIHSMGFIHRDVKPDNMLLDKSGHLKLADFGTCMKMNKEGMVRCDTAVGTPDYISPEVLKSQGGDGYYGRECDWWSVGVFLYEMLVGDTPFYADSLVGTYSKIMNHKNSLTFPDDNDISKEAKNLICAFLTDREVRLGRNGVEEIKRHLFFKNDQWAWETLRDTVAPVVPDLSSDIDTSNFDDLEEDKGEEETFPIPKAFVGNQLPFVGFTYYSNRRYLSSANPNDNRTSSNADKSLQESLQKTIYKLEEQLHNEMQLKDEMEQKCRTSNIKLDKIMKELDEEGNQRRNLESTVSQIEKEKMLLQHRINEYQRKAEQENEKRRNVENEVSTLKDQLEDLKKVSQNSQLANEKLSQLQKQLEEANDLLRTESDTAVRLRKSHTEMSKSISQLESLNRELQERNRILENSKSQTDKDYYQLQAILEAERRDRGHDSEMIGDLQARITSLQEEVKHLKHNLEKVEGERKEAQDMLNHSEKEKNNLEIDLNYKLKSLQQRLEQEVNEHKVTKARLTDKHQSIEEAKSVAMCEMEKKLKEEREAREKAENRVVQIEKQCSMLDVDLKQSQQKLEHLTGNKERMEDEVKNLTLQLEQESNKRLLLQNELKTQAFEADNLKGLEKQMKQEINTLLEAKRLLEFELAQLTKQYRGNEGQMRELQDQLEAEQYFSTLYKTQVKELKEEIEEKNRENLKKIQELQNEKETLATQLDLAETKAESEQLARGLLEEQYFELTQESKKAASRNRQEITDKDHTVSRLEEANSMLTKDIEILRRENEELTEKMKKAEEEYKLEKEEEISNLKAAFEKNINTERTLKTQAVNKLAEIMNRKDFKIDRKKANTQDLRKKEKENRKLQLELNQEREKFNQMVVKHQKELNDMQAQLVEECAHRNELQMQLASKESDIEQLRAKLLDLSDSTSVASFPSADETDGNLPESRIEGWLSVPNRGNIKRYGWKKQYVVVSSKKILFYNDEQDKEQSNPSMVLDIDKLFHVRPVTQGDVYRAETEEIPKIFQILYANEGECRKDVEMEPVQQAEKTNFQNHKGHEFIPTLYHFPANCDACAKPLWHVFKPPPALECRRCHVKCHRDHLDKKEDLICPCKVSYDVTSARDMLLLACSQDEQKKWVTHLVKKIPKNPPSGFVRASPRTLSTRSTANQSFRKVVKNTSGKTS

Compound | Ki (Rho kinase 1 (ROCK1)) [nM] | Ki (Rho kinase 2 (ROCK2)) [nM]
Cc1c[nH]c2nccc(Oc3ccc(CN4CCOCC4)cc3)c12 [Example 27, 4-(4-((3-Methyl-1H-pyrrolo[2,3-b]pyridin-4-yl)oxy)benzyl)morpholine] | > 50 | > 50
Cc1c[nH]c2nccc(Oc3ccc(C4CCCN4)cc3)c12 (racemic) [Example 18, 3-methyl-4-(4-(pyrrolidin-2-yl)phenoxy)-1H-pyrrolo[2,3-b]pyridine] | 5 to 50 | 5 to 50
Cc1c[nH]c2nccc(Oc3ccc4c(c3)CCNC4)c12 [Example 11, 6-((3-methyl-1H-pyrrolo[2,3-b]pyridin-4-yl)oxy)-1,2,3,4-tetrahydroisoquinoline] | 5 to 50 | 5 to 50
Cc1c[nH]c2nccc(Oc3ccc(CN4CCN(C)CC4)cc3)c12 [Example 33, 3-methyl-4-(4-((4-methylpiperazin-1-yl)methyl)phenoxy)-1H-pyrrolo[2,3-b]pyridine] | > 50 | 5 to 50
Cc1c[nH]c2ncnc(Oc3ccc(C4CCNC4)cc3)c12 (centres unmarked) [Example 7, 5-methyl-4-(4-(pyrrolidin-3-yl)phenoxy)-7H-pyrrolo[2,3-d]pyrimidine] | > 50 | > 50
Cc1c[nH]c2nccc(Oc3ccc4c(c3)CNCC4)c12 [Example 1, 7-((3-Methyl-1H-pyrrolo[2,3-b]pyridin-4-yl)oxy)-1,2,3,4-tetrahydroisoquinoline] | < 5 | < 5
Cc1c[nH]c2nccc(Oc3ccc4c(c3)CCCNC4)c12 [Example 15, 7-((3-methyl-1H-pyrrolo[2,3-b]pyridin-4-yl)oxy)-2,3,4,5-tetrahydro-1H-benzo[c]azepine] | 5 to 50 | 5 to 50
Cc1c[nH]c2nccc(Oc3ccc(CCN4CCCC4)cc3)c12 [Example 22, 3-methyl-4-(4-(2-(pyrrolidin-1-yl)ethyl)phenoxy)-1H-pyrrolo[2,3-b]pyridine] | 5 to 50 | 5 to 50
Cc1c[nH]c2nccc(Oc3ccc4c(c3)CCNCC4)c12 [Example 5, 7-((3-methyl-1H-pyrrolo[2,3-b]pyridin-4-yl)oxy)-2,3,4,5-tetrahydro-1H-benzo[d]azepine] | < 5 | < 5
Cc1c[nH]c2nccc(Oc3ccc(CNC4CCOCC4)cc3)c12 [Example 28, N-(4-((3-methyl-1H-pyrrolo[2,3-b]pyridin-4-yl)oxy)benzyl)tetrahydro-2H-pyran-4-amine] | 5 to 50 | 5 to 50
Cc1c[nH]c2ncnc(Oc3ccc(CCN)cc3)c12 [Example 8, 2-(4-((5-methyl-7H-pyrrolo[2,3-d]pyrimidin-4-yl)oxy)phenyl)ethanamine] | > 50 | > 50
Cc1c[nH]c2nccc(Oc3ccc4c(c3)CN(C)CC4)c12 [Example 10, 2-methyl-7-((3-methyl-1H-pyrrolo[2,3-b]pyridin-4-yl)oxy)-1,2,3,4-tetrahydroisoquinoline] | < 5 | < 5
Cc1c[nH]c2nccc(Oc3ccc(CN(C)C)cc3)c12 [Example 29, N,N-dimethyl-1-(4-((3-methyl-1H-pyrrolo[2,3-b]pyridin-4-yl)oxy)phenyl)methanamine] | 5 to 50 | 5 to 50
Cc1c[nH]c2nccc(Oc3ccc(CNC4CCN(C)CC4)cc3)c12 [Example 30, 1-methyl-N-(4-((3-methyl-1H-pyrrolo[2,3-b]pyridin-4-yl)oxy)benzyl)piperidin-4-amine] | 5 to 50 | 5 to 50
Cc1c[nH]c2nccc(Oc3ccc(CNCCO)cc3)c12 [Example 31, 2-((4-((3-methyl-1H-pyrrolo[2,3-b]pyridin-4-yl)oxy)benzyl)amino)ethanol] | 5 to 50 | 5 to 50
NCCc1ccc(Oc2ccnc3[nH]ccc23)cc1 [Example 4, 2-(4-((1H-pyrrolo[2,3-b]pyridin-4-yl)oxy)phenyl)ethanamine] | 5 to 50 | 5 to 50
CNCc1ccc(Oc2ccnc3[nH]cc(C)c23)cc1 [Example 3, N-methyl-1-(4-((3-methyl-1H-pyrrolo[2,3-b]pyridin-4-yl)oxy)phenyl)methanamine] | 5 to 50 | 5 to 50
Cc1c[nH]c2nccc(Oc3ccc4c(c3)CCCC4N)c12 (centres unmarked) [Example 26] | 5 to 50 | 5 to 50
Cc1c[nH]c2ncnc(Oc3ccc4c(c3)CNCC4)c12 [Example 6, 7-((5-methyl-7H-pyrrolo[2,3-d]pyrimidin-4-yl)oxy)-1,2,3,4-tetrahydroisoquinoline] | 5 to 50 | 5 to 50
Cc1c[nH]c2nccc(Oc3ccc(C4CCCN4)cc3)c12 (single isomer, unassigned) [Example 18B, 3-methyl-4-(4-(pyrrolidin-2-yl)phenoxy)-1H-pyrrolo[2,3-b]pyridine] | – | 5 to 50
Cc1c[nH]c2nccc(Oc3ccc(CN4CCC5(CCNC5)C4)cc3)c12 (centres unmarked) [Example 32, 4-(4-(2,7-diazaspiro[4.4]nonan-2-ylmethyl)phenoxy)-3-methyl-1H-pyrrolo[2,3-b]pyridine] | 5 to 50 | 5 to 50
Cc1c[nH]c2nccc(Oc3ccc(C4CNCCN4)cc3)c12 (centres unmarked) [Example 13, 3-methyl-4-(4-(piperazin-2-yl)phenoxy)-1H-pyrrolo[2,3-b]pyridine] | 5 to 50 | 5 to 50
Cc1c[nH]c2nccc(Oc3ccc4c(c3)CC(N)C4)c12 (centres unmarked) [Example 14, 5-((3-methyl-1H-pyrrolo[2,3-b]pyridin-4-yl)oxy)-2,3-dihydro-1H-inden-2-amine] | 5 to 50 | < 5

Next, values leading:

Ki (Rho kinase 1 (ROCK1)) [nM] | Ki (Rho kinase 2 (ROCK2)) [nM] | Compound
< 5 | < 5 | Cc1c[nH]c2nccc(Oc3ccc(CCN)cc3)c12 [Example 19, 2-(4-((3-methyl-1H-pyrrolo[2,3-b]pyridin-4-yl)oxy)phenyl)ethanamine]
< 5 | < 5 | Cc1c[nH]c2nccc(Oc3ccc(C[C@H](N)CO)cc3)c12 [Example 37, (S)-2-amino-3-(4-((3-methyl-1H-pyrrolo[2,3-b]pyridin-4-yl)oxy)phenyl)propan-1-ol]
< 5 | < 5 | Cc1c[nH]c2nccc(Oc3ccc4c(c3)CN[C@@H](CO)C4)c12 [Example 39, (R)-(7-((3-Methyl-1H-pyrrolo[2,3-b]pyridin-4-yl)oxy)-1,2,3,4-tetrahydroisoquinolin-3-yl)methanol]
5 to 50 | < 5 | Cc1c[nH]c2nccc(Oc3ccc(C(C)N)cc3)c12 (centres unmarked) [Example 24, 1-(4-((3-methyl-1H-pyrrolo[2,3-b]pyridin-4-yl)oxy)phenyl)ethanamine]
5 to 50 | < 5 | Cc1c[nH]c2nccc(Oc3ccc4c(c3)CNCCC4)c12 [Example 16, 8-((3-methyl-1H-pyrrolo[2,3-b]pyridin-4-yl)oxy)-2,3,4,5-tetrahydro-1H-benzo[c]azepine]
< 5 | < 5 | Cc1c[nH]c2nccc(Oc3ccc(C(C)N)cc3F)c12 (centres unmarked) [Example 23, 1-(3-fluoro-4-((3-methyl-1H-pyrrolo[2,3-b]pyridin-4-yl)oxy)phenyl)ethanamine]
5 to 50 | < 5 | Cc1c[nH]c2nccc(Oc3ccc(C(C)(C)N)cc3)c12 [Example 25, 2-(4-((3-methyl-1H-pyrrolo[2,3-b]pyridin-4-yl)oxy)phenyl)propan-2-amine]
< 5 | < 5 | N#Cc1c[nH]c2nccc(Oc3ccc4c(c3)CNCC4)c12 [Example 34, 4-((1,2,3,4-Tetrahydroisoquinolin-7-yl)oxy)-1H-pyrrolo[2,3-b]pyridine-3-carbonitrile]
5 to 50 | < 5 | Cc1c[nH]c2nccc(Oc3ccc(C4CNC4)cc3)c12 [Example 17, 4-(4-(azetidin-3-yl)phenoxy)-3-methyl-1H-pyrrolo[2,3-b]pyridine]
< 5 | < 5 | Cc1c[nH]c2nccc(Oc3ccc4c(c3)CNC4)c12 [Example 2, 4-(isoindolin-5-yloxy)-3-methyl-1H-pyrrolo[2,3-b]pyridine]
< 5 | < 5 | Cc1c[nH]c2nccc(Oc3ccc(C[C@H](N)CO)cc3F)c12 [Example 36, (S)-2-amino-3-(3-fluoro-4-((3-methyl-1H-pyrrolo[2,3-b]pyridin-4-yl)oxy)phenyl)propan-1-ol]
< 5 | < 5 | Cc1c[nH]c2nccc(Oc3ccc(C4CCNC4)cc3)c12 (centres unmarked) [Example 20, 3-methyl-4-(4-(pyrrolidin-3-yl)phenoxy)-1H-pyrrolo[2,3-b]pyridine]
5 to 50 | < 5 | Cc1c[nH]c2nccc(Oc3ccc(CN)cc3)c12 [Example 21, (4-((3-methyl-1H-pyrrolo[2,3-b]pyridin-4-yl)oxy)phenyl)methanamine]
5 to 50 | < 5 | NCc1cc(F)c(Oc2ccnc3[nH]ccc23)c(F)c1 [Example 35, (4-((1H-Pyrrolo[2,3-b]pyridin-4-yl)oxy)-3,5-difluorophenyl)methanamine]
< 5 | < 5 | Cc1c[nH]c2nccc(Oc3ccc(CN)cc3F)c12 [Example 12, (3-fluoro-4-((3-methyl-1H-pyrrolo[2,3-b]pyridin-4-yl)oxy)phenyl)methanamine]
5 to 50 | < 5 | Cc1c[nH]c2nccc(Oc3ccc(C(N)CO)cc3)c12 (centres unmarked) [Example 38, 2-amino-2-(4-((3-methyl-1H-pyrrolo[2,3-b]pyridin-4-yl)oxy)phenyl)ethanol]
